According to patent US12060347B2 (BRISTOL-MYERS SQUIBB COMPANY, priority 2016, dated 2024):

target: T1, human PAR4 (Homo sapiens, UniProt Q96RI0); assay: PAR4 FLIPR assay: antagonism of agonist-peptide-induced calcium mobilization in PAR4-expressing HEK293 cells; type: cell-based; settings: H-Ala-Phe(4-F)-[…]NH2-induced intracellular calcium mobilization, 11-point curves
T1 construct: expressed in transfected cells; host or cells: HEK293 PAR4 Clone 1.2A (BMS Arctic ID 383940)
T1 sequence (Q96RI0 18-385): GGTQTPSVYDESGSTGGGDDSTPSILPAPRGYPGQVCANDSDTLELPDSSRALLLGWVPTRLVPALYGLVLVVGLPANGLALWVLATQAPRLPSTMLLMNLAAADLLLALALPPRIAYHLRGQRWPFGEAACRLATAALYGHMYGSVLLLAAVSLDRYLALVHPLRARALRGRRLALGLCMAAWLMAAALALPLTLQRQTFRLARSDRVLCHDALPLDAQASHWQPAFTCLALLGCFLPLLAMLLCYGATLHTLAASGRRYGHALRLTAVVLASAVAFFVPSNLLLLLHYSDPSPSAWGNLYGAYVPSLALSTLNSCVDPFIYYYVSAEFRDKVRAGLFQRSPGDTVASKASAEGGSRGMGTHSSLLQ

IC50	Compound
590 nM	COc1cnc2c(-c3nc4c(Cl)c(F)c(OCCOC(=O)Nc5csc(Cl)n5)cc4s3)cc(C)cc2n1 [Example 383, 2-((4-chloro-5-fluoro-2-(2-methoxy-7-methylquinoxalin-5-yl)benzo[d]thiazol-6-yl)oxy)ethyl (2-chlorothiazol-4-yl)carbamate]
18 nM	COc1cnc2c(-c3nc4c(Cl)c(F)c(OCCOC(=O)Nc5cncs5)cc4s3)cc(C)cc2n1 [Example 384, 2-((4-chloro-5-fluoro-2-(2-methoxy-7-methylquinoxalin-5-yl)benzo[d]thiazol-6-yl)oxy)ethyl thiazol-5-ylcarbamate]
2.3 nM	COc1cnc2c(-c3nc4c(Cl)c(F)c(OC[C@@H](C)OC(=O)Nc5ccc(CO)nc5)cc4s3)cc(C)cc2n1 [Example 385, (R)-1-((4-chloro-5-fluoro-2-(2-methoxy-7-methylquinoxalin-5-yl)benzo[d]thiazol-6-yl)oxy)propan-2-yl (6-(hydroxymethyl)pyridin-3-yl)carbamate]
7.8 nM	COc1cnc2c(-c3nc4cc(F)c(O[C@@H](C)[C@@H](C)OC(=O)Nc5cnc(C)nc5)cc4s3)cc(C)cc2n1 [Example 386, (2R,3S)-3-((5-fluoro-2-(2-methoxy-7-methylquinoxalin-5-yl)benzo[d]thiazol-6-yl)oxy)butan-2-yl (2-methylpyrimidin-5-yl)carbamate]
1.5 nM	COc1cnc2c(-c3nc4cc(F)c(O[C@@H](C)[C@@H](C)OC(=O)Nc5ccc(CCO)nc5)cc4s3)cc(C)cc2n1 [Example 387, (2R,3S)-3-((5-fluoro-2-(2-methoxy-7-methylquinoxalin-5-yl)benzo[d]thiazol-6-yl)oxy)butan-2-yl (6-(2-hydroxyethyl)pyridin-3-yl)carbamate]
0.7 nM	COc1cnc2c(-c3nc4cc(F)c(O[C@@H](C)[C@@H](C)OC(=O)Nc5ccnc(OCCO)c5)cc4s3)cc(C)cc2n1 [Example 388, (2R,3S)-3-((5-fluoro-2-(2-methoxy-7-methylquinoxalin-5-yl)benzo[d]thiazol-6-yl)oxy)butan-2-yl (2-(2-hydroxyethoxy)pyridin-4-yl)carbamate]
0.4 nM	CCOc1cnc2c(-c3nc4cc(F)c(O[C@@H](C)[C@@H](C)OC(=O)Nc5cnc(C)nc5)cc4s3)cc(C)cc2n1 [Example 389, (2R,3S)-3-((2-(2-ethoxy-7-methylquinoxalin-5-yl)-5-fluorobenzo[d]thiazol-6-yl)oxy)butan-2-yl (2-methylpyrimidin-5-yl)carbamate]
3.6 nM	CNc1cnc2c(-c3nc4cc(F)c(O[C@@H](C)[C@@H](C)OC(=O)Nc5cnc(C)nc5)cc4s3)cc(C)cc2n1 [Example 390, (2R,3S)-3-((5-fluoro-2-(7-methyl-2-(methylamino)quinoxalin-5-yl)benzo[d]thiazol-6-yl)oxy)butan-2-yl (2-methylpyrimidin-5-yl)carbamate]
5.8 nM	COc1cnc2c(-c3nc4c(Cl)c(F)c(OCCOC(=O)Nc5ccc(C#N)nc5)cc4s3)cc(C)cc2n1 [Example 395, 2-((4-chloro-5-fluoro-2-(2-methoxy-7-methylquinoxalin-5-yl)benzo[d]thiazol-6-yl)oxy)ethyl (6-cyanopyridin-3-yl)carbamate]
4.6 nM	COc1cnc2c(-c3nc4c(Cl)c(F)c(OCCOC(=O)NCc5ccccn5)cc4s3)cc(C)cc2n1 [Example 396, 2-((4-chloro-5-fluoro-2-(2-methoxy-7-methylquinoxalin-5-yl)benzo[d]thiazol-6-yl)oxy)ethyl (pyridin-2-ylmethyl)carbamate]
210 nM	COc1cnc2c(-c3nc4c(Cl)c(F)c(OCCOC(=O)NCc5cn(C)cn5)cc4s3)cc(C)cc2n1 [Example 397, 2-((4-chloro-5-fluoro-2-(2-methoxy-7-methylquinoxalin-5-yl)benzo[d]thiazol-6-yl)oxy)ethyl ((1-methyl-1H-imidazol-4-yl)methyl)carbamate]
8.6 nM	COc1cnc2c(-c3nc4c(Cl)c(F)c(OCCOC(=O)NCc5ccn(C)n5)cc4s3)cc(C)cc2n1 [Example 398, 2-((4-chloro-5-fluoro-2-(2-methoxy-7-methylquinoxalin-5-yl)benzo[d]thiazol-6-yl)oxy)ethyl ((1-methyl-1H-pyrazol-3-yl)methyl)carbamate]
3.9 nM	COc1cnc2c(-c3nc4c(Cl)c(F)c(OCCOC(=O)NCc5cnn(C)c5)cc4s3)cc(C)cc2n1 [Example 399, 2-((4-chloro-5-fluoro-2-(2-methoxy-7-methylquinoxalin-5-yl)benzo[d]thiazol-6-yl)oxy)ethyl ((1-methyl-1H-pyrazol-4-yl)methyl)carbamate]
2 nM	COc1cnc2c(-c3nc4c(Cl)c(F)c(OC[C@@H](C)OC(=O)Nc5cnc(C#N)nc5)cc4s3)cc(C)cc2n1 [Example 400, (R)-1-((4-chloro-5-fluoro-2-(2-methoxy-7-methylquinoxalin-5-yl)benzo[d]thiazol-6-yl)oxy)propan-2-yl (2-cyanopyrimidin-5-yl)carbamate]
2.7 nM	COc1cnc2c(-c3nc4c(Cl)c(F)c(OC[C@@H](C)OC(=O)Nc5cnc(Cl)nc5)cc4s3)cc(C)cc2n1 [Example 401, (R)-1-((4-chloro-5-fluoro-2-(2-methoxy-7-methylquinoxalin-5-yl)benzo[d]thiazol-6-yl)oxy)propan-2-yl (2-chloropyrimidin-5-yl)carbamate]
3.7 nM	COc1cnc2c(-c3nc4c(Cl)c(F)c(OC[C@@H](C)OC(=O)Nc5cnc(F)c(C)c5)cc4s3)cc(C)cc2n1 [Example 402, (R)-1-((4-chloro-5-fluoro-2-(2-methoxy-7-methylquinoxalin-5-yl)benzo[d]thiazol-6-yl)oxy)propan-2-yl (6-fluoro-5-methylpyridin-3-yl)carbamate]
1.7 nM	COc1cnc2c(-c3nc4c(Cl)c(F)c(OC[C@@H](C)OC(=O)Nc5ccc(Br)nc5)cc4s3)cc(C)cc2n1 [Example 403, (R)-1-((4-chloro-5-fluoro-2-(2-methoxy-7-methylquinoxalin-5-yl)benzo[d]thiazol-6-yl)oxy)propan-2-yl (6-bromopyridin-3-yl)carbamate]
2.2 nM	COc1cnc2c(-c3nc4c(Cl)c(F)c(O[C@@H](C)[C@@H](C)OC(=O)Nc5cccnc5)cc4s3)cc(C)cc2n1 [Example 404, (2R,3S)-3-((4-chloro-5-fluoro-2-(2-methoxy-7-methylquinoxalin-5-yl)benzo[d]thiazol-6-yl)oxy)butan-2-yl pyridin-3-ylcarbamate]
1.9 nM	COc1cnc2c(-c3nc4cc(F)c(O[C@@H](C)[C@@H](C)OC(=O)Nc5ccc(C)nc5)cc4s3)cc(C)cc2n1 [Example 405, (2R,3S)-3-((5-fluoro-2-(2-methoxy-7-methylquinoxalin-5-yl)benzo[d]thiazol-6-yl)oxy)butan-2-yl (6-methylpyridin-3-yl)carbamate]
3.5 nM	COc1cnc2c(-c3nc4cc(F)c(O[C@@H](C)[C@@H](C)OC(=O)Nc5ccc6[nH]c(=O)oc6c5)cc4s3)cc(C)cc2n1 [Example 406, (2R,3S)-3-((5-fluoro-2-(2-methoxy-7-methylquinoxalin-5-yl)benzo[d]thiazol-6-yl)oxy)butan-2-yl (2-oxo-2,3-dihydrobenzo[d]oxazol-6-yl)carbamate]
0.9 nM	COc1cnc2c(-c3nc4cc(F)c(O[C@@H](C)[C@@H](C)OC(=O)Nc5cnc(OC)nc5)cc4s3)cc(C)cc2n1 [Example 407, (2R,3S)-3-((5-fluoro-2-(2-methoxy-7-methylquinoxalin-5-yl)benzo[d]thiazol-6-yl)oxy)butan-2-yl (2-methoxypyrimidin-5-yl)carbamate]
3.2 nM	COc1cnc2c(-c3nc4cc(F)c(OC[C@@H](C)OC(=O)Nc5cnc(OC)nc5)cc4s3)cc(C)cc2n1 [Example 408, (R)-1-((5-fluoro-2-(2-methoxy-7-methylquinoxalin-5-yl)benzo[d]thiazol-6-yl)oxy)propan-2-yl (2-methoxypyrimidin-5-yl)carbamate]
0.4 nM	COc1cnc2c(-c3nc4cc(F)c(OC[C@@H](C)OC(=O)Nc5cncnc5)cc4s3)cc(C)cc2n1 [Example 409, (R)-1-((5-fluoro-2-(2-methoxy-7-methylquinoxalin-5-yl)benzo[d]thiazol-6-yl)oxy)propan-2-yl pyrimidin-5-ylcarbamate]
0.3 nM	COc1cnc2c(-c3nc4cc(F)c(O[C@@H](C)[C@@H](C)OC(=O)Nc5cncnc5)cc4s3)cc(C)cc2n1 [Example 410, (2R,3S)-3-((5-fluoro-2-(2-methoxy-7-methylquinoxalin-5-yl)benzo[d]thiazol-6-yl)oxy)butan-2-yl pyrimidin-5-ylcarbamate]
4.4 nM	COc1cnc2c(-c3nc4cc(F)c(OC[C@@H](C)OC(=O)Nc5ccccc5)cc4s3)cc(C)cc2n1 [Example 411, (R)-1-((5-fluoro-2-(2-methoxy-7-methylquinoxalin-5-yl)benzo[d]thiazol-6-yl)oxy)propan-2-yl phenylcarbamate]
0.3 nM	COc1cc(NC(=O)O[C@H](C)[C@H](C)Oc2cc3sc(-c4cc(C)cc5nc(OC)cnc45)nc3cc2F)ccn1 [Example 412, (2R,3S)-3-((5-fluoro-2-(2-methoxy-7-methylquinoxalin-5-yl)benzo[d]thiazol-6-yl)oxy)butan-2-yl (2-methoxypyridin-4-yl)carbamate]
3.4 nM	COc1cnc2c(-c3nc4cc(F)c(O[C@@H](C)[C@@H](C)OC(=O)Nc5ccnnc5)cc4s3)cc(C)cc2n1 [Example 413, (2R,3S)-3-((5-fluoro-2-(2-methoxy-7-methylquinoxalin-5-yl)benzo[d]thiazol-6-yl)oxy)butan-2-yl pyridazin-4-ylcarbamate]
